Test results reported in patent US20060094775A1, “Remedy for corneal ulcer” (priority 2003, published 2006).
“Also recorded” adds a separate entry of the source.

Legend:
[1] = test system: rabbit corneal stromal cells; assay: Measurement of collagen degradation activity after three-dimensional collagen gel culture (hydroxyproline per well); format: cell-based; details: IL-1β 0.1 ng/ml, 48 hr three-dimensional culture, various concentrations
Description: (§1) Rabbit corneal stromal cells were prepared and cultured according to the description of Mishima et al., Invest. Ophthalmol. Vis. Sci. 28, 1521-6 (1987). The rabbits were sacrificed by overdose of sodium pentobarbital. Eyeballs were enucleated, sclera was incised to remove cornea. Stroma was separated from epithelium and endothelium. Corneal stromal cells were detached from stroma by digesting with collagenase (Collagenase from Clostridium histolyticum, Sigma (U.S.A.) #C-0130) (2 mg/ml) at 37° C. for 3-4 hr. The cells were cultured in MEM supplemented with 10% fetal bovine serum (FBS), grown in an incubator (37° C. humidity 100%) in 5% CO2 and then passaged in MEM containing 10% FBS.
Collagen gel was prepared according to the manual of Nitta gelatin. To be specific, the obtained rabbit corneal stromal cells were washed with PBS(−), 0.05% Trypsin (1 ml) was added thereto, and the mixture was left in a CO2 incubator for several min to detach the cells. […] The number of the cells was counted with Burker-Turk hemocytometer (Kayagaki Irika Kogyo). […]
After three-dimensional culture, the medium was collected and non-degraded collagen fibril having a molecular weight exceeding 100 kDa was removed by ultrafiltration. […] The amount of the hydroxyproline in the hydrolysate was measured using an Ehrlich's reagent and a spectrophotometer (Bergman et al., Anal. Chem., 35, 1961-5 (1963)). […]

[2] = test system: proMMP-9, MMP-9, proMMP-2 and MMP-2 in rabbit corneal stromal cells; assay: Gelatin zymography of culture medium for MMP-2 and MMP-9 forms after three-dimensional culture; format: cell-based; details: for effect on expression of MMPs and proMMPs (gelatin zymography): plasminogen addition, IL-1β 0.1 ng/ml (Example 2, FIG. 9)
Description: as §1
Collagen gel was prepared according to the manual of Nitta gelatin. To be specific, the obtained rabbit corneal stromal cells were washed with PBS(−), 0.05% Trypsin (1 ml) was added thereto, and the mixture was left in a CO2 incubator for several min to detach the cells. MEM (5 ml) containing 10% FBS was added to quench the trypsin reaction. The cell suspension was transferred to a 15 ml centrifuge tube, and centrifuged at 1500 rpm for 5 min. The supernatant was removed and the cells were suspended in a constant amount of serum free MEM. The number of the cells was counted with Burker-Turk hemocytometer (Kayagaki Irika Kogyo). The supernatant was removed by centrifugation at 1500 rpm for 5 min. Serum free MEM was added to give a cell suspension (2200000 cells/ml). A. acid-solubilized Type I collagen (3 mg/ml), B. 5-fold concentration of DMEM, C. reconstruction buffer (0.05N NaOH, 0.26 M NaHCO3, 0.2 M HEPES, pH 7.3) and D. a cell suspension (2.2×10^6 cells/ml) were mixed at a ratio of A:B:C:D=7:2:1:1 while cooling on ice. The collagen solution was placed in a 24 well culture plate at 0.5 ml/well, and stood in an incubator at 37° C. 5% CO2 for 0.5-5 hr. Then, 0.5 ml of serum free MEM containing IL-1β (0.1 ng/mL) and various concentrations of triptolide or dexamethasone was overlaid and cultured for 48 hr. […]

[3] = test system: TIMP-1 production (mRNA) in rabbit corneal stromal cells; assay: RT-PCR of TIMP-1 mRNA after three-dimensional culture; format: cell-based; details: IL-1β 0.1 ng/ml; dexamethasone 1 nM, triptolide 3 μM
Description: as §1
Collagen gel was prepared according to the manual of Nitta gelatin. […] The number of the cells was counted with Burker-Turk hemocytometer (Kayagaki Irika Kogyo). […]
After three-dimensional culture, collagenase was added to dissolve the collagen gel, and the cells were collected. […] This cDNA, QuantiTect SYBR Green PCR Master Mix solution (QuantiTect-SYBR Green PCR kit, manufactured by Qiagen, Germany), nuclease free water and rabbit TIMP-1 primer (synthesis at Nippon Gene Institute, Han et al., Nagoya J. Med. Sci. 62, 115-126 (1999)) were mixed, and the expression amount of TIMP-1 mRNA was examined using LightCycler (manufactured by Roche Molecular Biochemicals, Germany).

[4] = test system: glycosylated proMMP-1, proMMP-1, MMP-1, proMMP-3 and MMP-3 in rabbit corneal stromal cells; assay: Western blot of culture medium for MMP-1 and MMP-3 forms after three-dimensional culture; format: cell-based; details: IL-1β addition
Description: as §1
Collagen gel was prepared according to the manual of Nitta gelatin. To be specific, the obtained rabbit corneal stromal cells were washed with PBS(−), 0.05% Trypsin (1 ml) was added thereto, and the mixture was left in a CO2 incubator for several min to detach the cells. MEM (5 ml) containing 10% FBS was added to quench the trypsin reaction. The cell suspension was transferred to a 15 ml centrifuge tube, and centrifuged at 1500 rpm for 5 min. The supernatant was removed and the cells were suspended in a constant amount of serum free MEM. The number of the cells was counted with Burker-Turk hemocytometer (Kayagaki Irika Kogyo). The supernatant was removed by centrifugation at 1500 rpm for 5 min. […]

[5] = test system: proMMPs 1 and 3 in human synovial fluid fibroblast; details: cited from earlier work

| Structure (SMILES) | effect on IL-1β induced collagen degradation (amount of degraded collagen as hydroxyproline per well) [1] | effect on expression of MMPs and proMMPs (gelatin zymography) [2] | effect on TIMP-1 production (relative copy number of mRNA) [3] | effect on expression and activation of proMMPs (Western blot) ([4]; 60 mg/ml plasminogen addition) | effect on expression of proMMPs (Western blot) ([4]; plasminogen non-addition) | effect on production of proMMPs 1 and 3 [5] | effect on expression and activation of proMMPs (gelatin zymography) ([2]; 60 mg/ml plasminogen addition, IL-1β addition (Example 1)) |
| --- | --- | --- | --- | --- | --- | --- | --- |
| CC(C)[C@]12O[C@H]1[C@@H]1O[C@@]13[C@@]1(C)CCC4=C(COC4=O)[C@@H]1C[C@@H]1O[C@@]13C2OC(=O)CCC(=O)[O-].[Na+] (stereo partly drawn) [triptolide succinate sodium salt] | suppress IL-1β induced collagen degradation in a concentration dependent manner | suppresses increase of MMP-2 and activation of MMP-9 |  |  |  |  |  |
| CC(C)[C@]12O[C@H]1[C@@H]1O[C@]13[C@]1(O[C@H]1C[C@H]1C4=C(CC[C@@]13C)C(=O)OC4)[C@@H]2O [triptolide] | suppress IL-1β induced collagen degradation in a concentration dependent manner; also recorded: suppresses IL-1β induced collagen degradation in a concentration dependent manner | suppresses increase of proMMP-2 and MMP-2, as well as activation of proMMP-9 | does not | suppresses increase and activation of glycosylated proMMP-1, proMMP-1 and proMMP-3 | suppresses increase of glycosylated proMMP-1, proMMP-1 and proMMP-3 induced by IL-1β | suppresses production of proMMPs 1 and 3 | activation of proMMP-9 |
